Experiments:
[1] = Stability of compounds in whole blood (dog); type: in vitro ADME; settings: 1 μM compound, 37° C.
Experimental: (§1) Selected compounds of the present invention (1 μM) were incubated with whole blood (with heparin) from rat, dog and human. The samples were incubated for 0, 0.5, 1 and 2 hours in a 95% humidified incubator at 37° C. with 5% CO2. At each time point, the samples were quenched with acetonitrile containing an appropriate internal standard. The samples were then vortex-mixed and centrifuged at 2,500×g for 20 minutes. The supernatants were transferred to clean plates and analyzed using LC-MS/MS. The stability of the analyte was assessed by determining the percentage of drug loss over the course of time.

[2] = Stability of compounds in whole blood (rat); type: in vitro ADME; settings: 1 μM compound, 37° C.
Experimental: as §1

[3] = Stability of compounds in whole blood (human); type: in vitro ADME; settings: 1 μM compound, 37° C.
Experimental: as §1

[4] = Dog pharmacokinetic studies, oral administration to fasted Beagle dogs; type: in vivo; settings: dose equivalent to 10 mg/kg of Compound Int-1
Experimental: Male Beagle Dogs (Marshall Farms) were used for the pharmacokinetic studies. Studies were conducted under a protocol approved by the WP-IACUC (Animal Procedure Statement #2018-600787-MAR). Following overnight-fasting, dogs were dosed orally with either Compound Int-1 at 10 mg/kg or one of the respective prodrugs at the dose equivalent to 10 mg/kg of Compound Int-1 formulated as a suspension in Orablend® SF. Dosing was followed by 15 mL water rinse via oral gavage. Food was returned at 4 hours after dosing. Blood (0.5-mL) was drawn at pre-dose, 0.25, 0.5, 1, 2, 4, 6, 24, 30, 48, 54 and 72 hours post-dosing into EDTA-coated collection tubes containing 25 μL of 2 mM dichlorvos solution in water. The tubes were kept chilled prior to blood collection and throughout plasma separation. The plasma was separated by centrifugation (2 minutes at 10000 g). After processing, 10 uL of 10% formic acid was added to each 200 uL of plasma. Acidified plasma samples were immediately frozen and kept at −70° C. until analysis by LC-MS/MS.
Mean [±SD] Pharmacokinetic Parameters for Compounds after Oral Administration to Fasted Beagle Dogs at Dose Equivalent to 10 mg/kg of Compound Int-1.

## CCOC(=O)Oc1c2n(cc(C(=O)NCc3ccc(F)cc3F)c1=O)C[C@@H]1OCCC[C@]1(C)C2=O [Compound 1]
[1]
  Remaining at 2 hours: 19%
[2]
  Remaining at 2 hours: 0%
[3]
  Remaining at 2 hours: 24%

## CC(C)OC(=O)OCOc1c2n(cc(C(=O)NCc3ccc(F)cc3F)c1=O)C[C@@H]1OCCC[C@]1(C)C2=O [Compound 3]
[4]
  absorption versus metabolite Compound Int-1: significant increase in absorption

## CCOC(=O)OCOc1c2n(cc(C(=O)NCc3ccc(F)cc3F)c1=O)C[C@@H]1OCCC[C@]1(C)C2=O [Compound 4]
[4]
  absorption versus metabolite Compound Int-1: significant increase in absorption

Reference: patent publication US10786488B2, “Substituted quinolizine derivatives useful as HIV integrase inhibitors” (MERCK SHARP & DOHME CORP., priority 2017, dated 2020)
